Measured values taken from patent publication US6852482B1, “Methods and compositions for inhibiting β-secretase” (Elan Pharmaceuticals, Inc., priority 1995, dated 2005).
Read-outs that look alike come from different tables or passages of the source.

B1: peanut (PNA): immobilized lectin (protein, UniProt P02872 24-273, looked up)
Galactose-binding lectin: AETVSFNFNSFSEGNPAINFQGDVTVLSNGNIQLTNLNKVNSVGRVLYAMPVRIWSSATGNVASFLTSFSFEMKDIKDYDPADGIIFFIAPEDTQIPAGSIGGGTLGVSDTKGAGHFVGVEFDTYSNSEYNDPPTDHVGIDVNSVDSVKTVPWNSVSGAVVKVTVIYDSSTKTLSVAVTNDNGDITTIAQVVDLKAKLPERVKFGFSASGSLGGRQIHLIRSWSFTSTLITTTRRSIDNNEKKIMNMASA
modifications: immobilized
notes: immobilized lectin
B2: lentil (LCA): immobilized lectin (protein)
chain 1: TETTSFSITKFSPDQKNLIFQGDGYTTKGKLTLTKAVKSTVGRALYSTPIHIWDRDTGNVANFVTSFTFVIDAPSSYNVADEFTFFIAPVDTKPQTGGGYLGVFNSKEYDKTSQTVAVEFDTFYNAAWDPSNKERHIGIDVNSIKSVNTKSWNLQNGERANVVIAFNAATNVLTVTLTYP
chain 2: VTSYTLNEVVPLKDVVPEWVRIGFSATTGAEFAAHEVHSWSFHSELGGTSSS

Legend:
[1] = biological target: T1, β-secretase cleavage of APP in membranes from 293 cells transfected with the Swedish variant of APP (Homo sapiens, UniProt P56817); assay: cell membrane (in situ) β-secretase cleavage of APP, 293SW cell membranes, 192SW immunoblot; assay type: biochemical
T1 construct: membranes from 293 cells transfected with the Swedish variant of APP (293SWE cells); endogenous in cells; host or cells: 293SW cells (human 293 cells stably transfected with Swedish APP); saponin-extracted P2 membrane pellet
Source text: Generation of β-secretase cleaved APP fragments from the endogenous full length APP protein was observed using the 192SW antibody (described above) in membranes from 293 cells transfected with the Swedish variant of APP (293SWE cells). APP fragments may be measured by immunoprecipitation or by immunoblotting. The latter technique is preferred for reasons of convenience.
A semiquantitative assay for the detecting in situ β-secretase cleavage of APP in membranes was developed used to directly identify β-secretase inhibitors. The membrane assay is useful as a primary screen or as a secondary assay to confirm inhibiting activity of potential inhibitors identified in the assays described above.
Cell membrane assays were run as follows. […]
For β-secretase inhibition assays, 10 μl of the test compound of interest at 5 times its desired final concentration, in 500 mM sodium acetate, pH 5.5, and 20% DMSO, was added to 40 μl of the extracted P2 suspension. […] Membranes were blocked in NCS-TBS (10% newborn calf serum, 150 mM sodium chloride, 50 mM Tris, pH 7.5), and analyzed using 192SW, 0.5 μg/ml in NCS-TBS, as primary antibody, horseradish peroxidase-linked anti-rabbit IgG (Amersham) diluted 1:3000 in NCS-TBS as secondary antibody, and ECL reagent (Amersham) as chemilumenescent developer. The 192SW-reactive bands identified by autoradiography were quantitated by densitometry.

β-secretase [2] = biological target: T2, β-secretase (Homo sapiens, UniProt P56817); assay: β-secretase inhibitor assay: purified β-secretase, MBP-C125 SW substrate, ELISA
T2 sequence (P56817 46-501): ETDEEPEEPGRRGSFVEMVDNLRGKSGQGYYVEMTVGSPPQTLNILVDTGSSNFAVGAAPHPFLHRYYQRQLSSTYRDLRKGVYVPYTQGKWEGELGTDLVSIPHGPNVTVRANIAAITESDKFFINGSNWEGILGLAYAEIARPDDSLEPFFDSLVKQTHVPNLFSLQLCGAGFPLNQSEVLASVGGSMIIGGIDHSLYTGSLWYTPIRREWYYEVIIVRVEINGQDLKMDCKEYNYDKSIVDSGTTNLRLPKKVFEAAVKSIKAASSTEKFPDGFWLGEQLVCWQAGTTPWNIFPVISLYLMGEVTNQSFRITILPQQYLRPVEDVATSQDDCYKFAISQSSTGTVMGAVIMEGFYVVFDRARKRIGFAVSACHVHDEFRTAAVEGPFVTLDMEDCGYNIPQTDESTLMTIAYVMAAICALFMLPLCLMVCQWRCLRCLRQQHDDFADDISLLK

β-secretase [3] = biological target: T2, β-secretase; assay: binding of substantially purified β-secretase activity to immobilized lectins; parameters: endogenous in cells; host or cells: human 293 cells or human brain; solubilized membrane extract purified by WGA, SP, Q, Con A and Superdex 200 chromatography; settings: for β-Secretase Binding: immobilized lectins
Method: Glycosylation of β-secretase has been investigated using various immobilized lectins, and ability of substantially purified β-secretase activity to bind to them was determined. […] A “−” sign signifies less than 20% binding, “+” between 24-40% binding, “++” between 50-75% binding, and “+++”>75% binding.

[4] = concentration of inhibitor giving 50% inhibition of control activity

| Molecule | IC50 (β-secretase [2]; [4]) | β-Secretase Binding (β-secretase [3]) | other results |
| --- | --- | --- | --- |
| Nc1c(/N=N/c2ccc(-c3ccc(/N=N/c4cc(S(=O)(=O)O)c5ccccc5c4N)cc3)cc2)cc(S(=O)(=O)O)c2ccccc12 [Congo Red] |  |  | activity in the in situ assay [1]: much more potent than an inactive control compound; activity in the ELISA assay (β-secretase [2]; ELISA assay): much more potent than an inactive control compound |
| [Cu+2] [Cu] | 2 mM |  |  |
| [Zn+2] [Zn] | 3 mM |  |  |
| CCCCC(NC(=O)C=[N+]=[N-])C(=O)OC (stereo not shown) [diazoacetylnorleucyl-methyl ester] |  |  | IC50 (β-secretase [2]): > 5 mM |
| c1cnc2c(c1)ccc1cccnc12 [o-phenanthroline] | 7 mM |  | inhibition of β-secretase activity (β-secretase [2]; summary of Table 3): inhibits poorly |
| m-phenanthroline | 7 mM |  |  |
| wheat germ (WGA): immobilized lectin |  | + + + | binding of β-secretase activity (β-secretase [3]): quantitatively |
| wheat germ - succinylated (SWGA): immobilized lectin |  | + (between 24-40% binding) |  |
| B1 |  | + (between 24-40% binding) |  |
| B2 |  | + (between 24-40% binding) |  |
